One test relates to 42-MG-BA cells. Kind of test: Cell proliferation measurement (CellTiter-Glo, 72 h). The test is classed as cell-based. Conditions: Homo sapiens, anti-proliferation, Brain (Glioblastoma). As to the method: (§1) The antiproliferative activity of the compounds of the general formula (I) was examined in vitro in human cancer cells. […] After 24 h, cells on one plate (0 h plate) were treated with 30 μl/cavity of CTG solution (Promega Cell Titer Glo (catalogue #G755B and G756B)) and incubated at room temperature for 10 min, and luminescence was measured by means of a VICTOR V (Perkin Elmer), in order to determine cell viability on commencement of treatment. The cells on the test plate were treated with the compounds of the general formula (I) as and incubated at 37° C. for 72 h. The compounds were added to the cells by means of an HP D300 digital dispenser in a 10-step 2,5-fold dilution series generally starting at a maximum final drug concentration of 100 nM, or 30 μM in the case of COV318. As control, the cells were treated with vehicle (DMSO at 0.3% final concentration). After 72 h, the cells were treated with 30 μl/cavity of CTG solution (Promega Cell Titer Glo (catalogue #G755B and G756B)) and incubated at room temperature for 10 min, and luminescence was measured by means of a VICTOR V (Perkin Elmer), in order to determine cell viability at the end of treatment. The percentage effect on cell growth and the IC50 derived therefrom were determined for each test substance using the values from the 0 h plate (=maximum inhibition) and the DMSO control (=minimum inhibition). The IC50 values were calculated using a 4-parameter fit.

A further test concerns 92.1 cells. The description is as above. The test is classed as cell-based. The settings on record: Homo sapiens, anti-proliferation, 92.1, Uveal melanoma. How it is done:
as §1

Another test relates to COV318 cells. The description is as above. The test is classed as cell-based. Conditions: Homo sapiens, anti-proliferation, COV318, Ovarian cancer, maximum concentration 30 μM. How it is done: as §1
The subject of the next test is DBTRG05MG cells. The test is described as above. The class given is cell-based. Conditions: Homo sapiens, DBTRG-05MG, anti-proliferation, Brain (Glioblastoma). As to the method: as §1
For another test, the system named is DKMG cells. Described as above. The test is classed as cell-based. Conditions: Homo sapiens, anti-proliferation, Brain (Glioblastoma). How it is done:
as §1

Another test relates to GAMG cells. Described as above. The class given is cell-based. The settings on record: Homo sapiens, anti-proliferation, Brain (Glioblastoma). As to the method:
as §1

In another test the test system is GB1 cells. The test is described as above. The class given is cell-based. Conditions: Homo sapiens, GB-1, anti-proliferation, GB1, Brain (Glioblastoma). How it is done: as §1
The subject of a further test is H4 cells. Described as above. The class given is cell-based. Conditions: Homo sapiens, anti-proliferation, H4, Brain (Astrocytoma). As to the method:
as §1

The next test concerns HeLa cells. Described as above. The class given is cell-based. The settings on record: Homo sapiens, anti-proliferation. As to the method:
as §1

The subject of the next test is IGR37 cells. The description is as above. The class given is cell-based. The settings on record: Homo sapiens, IGR-37, anti-proliferation, IGR37, Melanoma. As to the method:
as §1

For the next test, the system named is LN229 cells. Described as above. The class given is cell-based. The settings on record: Homo sapiens, LN-229, anti-proliferation, LN229, Brain (Glioblastoma). As to the method:
as §1

Another test deals with M059J cells. Described as above. The settings on record: Homo sapiens, anti-proliferation, Brain (Glioblastoma). The class given is cell-based. As to the method: as §1
The test system of the next test is Mel202 cells. The description is as above. Conditions: Homo sapiens, anti-proliferation, Mel202, Uveal melanoma. The class given is cell-based. How it is done: as §1
In another test the test system is PFSK cells. Described as above. The test is classed as cell-based. Conditions: Homo sapiens, anti-proliferation, Brain (Primitive neuroectodermal tumor). As to the method: as §1
In a further test the test system is SK-MEL-3 cells. Described as above. The class given is cell-based. Conditions: Homo sapiens, SK-MEL3; anti-proliferation, SK-MEL-3, 72 h. How it is done: as §1
For the next test, the system named is SW1783 cells. The test is described as above. The test is classed as cell-based. The settings on record: Homo sapiens, anti-proliferation, SW1783, Brain (Anaplastic astrocytoma). How it is done:
as §1

The next test concerns T98G cells. Described as above. The test is classed as cell-based. Conditions: Homo sapiens, anti-proliferation, Brain (Glioblastoma). As to the method:
as §1

A further test relates to U-251MG cells. Described as above. The class given is cell-based. Conditions: Homo sapiens, anti-proliferation, Brain (Glioblastoma: Astrocytoma). How it is done:
as §1

For a further test, the system named is U118-MG cells. The description is as above. The test is classed as cell-based. The settings on record: Homo sapiens, U-118-MG, anti-proliferation, Brain (Glioblastoma: Astrocytoma). As to the method: as §1
A further test concerns YKG1 cells. Described as above. The settings on record: Homo sapiens, YKG-1, anti-proliferation, YKG1, Brain (Glioblastoma). The class given is cell-based. How it is done:
as §1

A further test concerns the target human full length PDE3A (Homo sapiens (Human), UniProt Q14432). Kind of test: PDE3A enzyme inhibition (3H-cAMP Scintillation Proximity Assay). The test is classed as biochemical. The settings on record: Sf9 cell extract, 60 min room temperature. How it is done: The commercially available 3H-cAMP Scintillation Proximity Assay (SPA, Perkin Elmer) system was used for enzyme inhibition studies. For the determination of the in vitro effect of example compounds on the PDE3A reactions 2 μl of the respective example compound solution in DMSO (serial dilutions) were placed in wells of microtiter plates (Isoplate-96/200W; Perkin Elmer). 50 μl of a dilution of PDE3A cell extract from Sf9 cells overexpressing human full length PDE3A (SB Drug Discovery, UK) in buffer A (50 mM Tris/HCl pH 7.5, 8.3 mM MgCl2, 1.7 mM EDTA, 0.2% BSA) was added. The dilution of the PDE3A cell extract was chosen such that the reaction kinetics was linear and less than 70% of the substrate was consumed (typical dilution 1:5000). The reaction was started by addition of 50 μl (0.025 μCi) of 1:2000 in buffer A w/o BSA diluted substrate [8-3H]adenosine 3′, 5′-cyclic phosphate (1 μCi/μl; Perkin Elmer). After incubation at room temperature for 60 min, the reaction was stopped by addition of 25 μl of a suspension containing 18 mg/ml yttrium scintillation proximity beads (Perkin Elmer) in water. The microtiter plates were sealed and measured in a Microbeta scintillation counter (PerkinElmer Wallac). IC50 values were determined from sigmoidal curves by plotting percentage PDE3A activity vs log compound concentration.

Where only a bound is given, the exact number is not on record here.

human full length PDE3A, sequence (Q14432 whole entry): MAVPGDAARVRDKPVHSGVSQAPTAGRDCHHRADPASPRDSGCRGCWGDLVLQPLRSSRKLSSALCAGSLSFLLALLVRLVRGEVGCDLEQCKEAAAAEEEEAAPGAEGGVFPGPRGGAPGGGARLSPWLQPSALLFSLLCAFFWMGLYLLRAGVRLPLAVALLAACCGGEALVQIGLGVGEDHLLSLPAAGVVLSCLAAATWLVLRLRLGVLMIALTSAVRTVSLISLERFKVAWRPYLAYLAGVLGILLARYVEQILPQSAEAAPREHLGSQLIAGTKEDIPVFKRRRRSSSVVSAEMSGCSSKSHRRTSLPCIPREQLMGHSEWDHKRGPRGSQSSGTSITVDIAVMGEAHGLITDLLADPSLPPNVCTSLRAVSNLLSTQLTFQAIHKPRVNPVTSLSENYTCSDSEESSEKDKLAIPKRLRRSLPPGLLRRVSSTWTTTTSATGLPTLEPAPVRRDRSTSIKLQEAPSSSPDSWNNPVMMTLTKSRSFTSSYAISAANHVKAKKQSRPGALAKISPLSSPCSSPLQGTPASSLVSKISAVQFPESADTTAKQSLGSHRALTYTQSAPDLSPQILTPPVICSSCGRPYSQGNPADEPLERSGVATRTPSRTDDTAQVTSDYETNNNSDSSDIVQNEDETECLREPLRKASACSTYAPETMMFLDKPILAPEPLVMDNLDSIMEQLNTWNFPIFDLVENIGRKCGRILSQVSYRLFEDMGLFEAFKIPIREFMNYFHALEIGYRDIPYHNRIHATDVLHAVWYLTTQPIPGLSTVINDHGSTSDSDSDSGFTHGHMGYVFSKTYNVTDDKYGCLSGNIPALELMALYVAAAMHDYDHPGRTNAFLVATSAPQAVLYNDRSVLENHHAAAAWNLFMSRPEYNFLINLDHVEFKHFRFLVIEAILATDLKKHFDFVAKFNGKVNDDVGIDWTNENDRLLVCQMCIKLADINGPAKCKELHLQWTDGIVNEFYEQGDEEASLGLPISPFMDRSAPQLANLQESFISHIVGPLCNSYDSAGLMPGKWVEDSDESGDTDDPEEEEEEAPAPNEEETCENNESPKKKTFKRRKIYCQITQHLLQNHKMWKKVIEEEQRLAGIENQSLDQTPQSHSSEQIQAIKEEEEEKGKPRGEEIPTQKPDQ

For `C[C@@H]1NC(=O)NN=C1c1ccc(-n2ccc(C(F)(F)F)n2)c(C(F)(F)F)c1` [Example 1, (5S)-5-methyl-6-{3-(trifluoromethyl)-4-[3-(trifluoromethyl)-1H-pyrazol-1-yl]phenyl}-4,5-dihydro-1,2,4-triazin-3(2H)-one], the IC50 in the test with 42-MG-BA cells was > 100 nM; with 92.1 cells it was 19.4 nM; in the test on COV318 cells, 8930 nM; with DBTRG05MG cells, 30.5 nM; in the test with DKMG cells it was 16.6 nM; in the test with GAMG cells, > 100 nM. Besides, the IC50 in the test with GB1 cells was 8.96 nM; in the test on H4 cells it was 47.7 nM; in the test with HeLa cells, 1.5 nM; in the test with IGR37 cells, 4.01 nM; in the test with LN229 cells, > 100 nM; in the test on M059J cells, 40.5 nM. Also, the IC50 in the test with Mel202 cells is 74.2 nM; in the test on PFSK cells it was 2.95 nM; in the test with SK-MEL-3 cells, 4 nM; with SW1783 cells, > 100 nM; with T98G cells it was > 100 nM; in the test on U-251MG cells it was > 100 nM. The IC50 in the test with U118-MG cells is > 100 nM; in the test with YKG1 cells, > 100 nM; against human full length PDE3A, 91 nM.

The values are drawn from patent US20250170136A1, “1,2,4-TRIAZIN-3(2H)-ONE COMPOUNDS FOR THE TREATMENT OF HYPERPROLIFERATIVE DISEASES” (BAYER AKTIENGESELLSCHAFT, priority 2019, published 2025).
